Measured values from US20200157144A1, “ANTIMICROBIAL PEPTIDOMIMETICS” (priority 2017, published 2020).
≈ marks a conversion by molar mass, not a printed value. Square brackets hold non-standard residues; d marks the D form. Peptide text beside a SMILES is read from it. dBip(4'-Cl) = N[C@H](Cc1ccc(-c2ccc(Cl)cc2)cc1)C(=O)O

What was measured:
Test in all cases: microbe, parasite or virus in culture
[1] = tested on: Mupirocin-resistant MRSA ATCC-BAA-1556; type: cell-based, Staphylococcus aureus
Outline: (§1)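 OD600 read-out after overnight shaking at 35° C. Cation-adjusted MH2 broth, inoculum ~1×10^6 CFU/mL, compounds 100–0.195 μM (2-fold, duplicates). MIC = lowest μM concentration with no growth, per CLSI microdilution.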

[2] = tested on: Mupirocin-resistant MRSA ATCC-BAA-1708; type: cell-based, Staphylococcus aureus; details: ATCC-BAA-1708; read-out: MIC
Outline: as §1

[3] = tested on: Mupirocin-resistant MRSA ATCC-BAA-1750 (USA200); type: cell-based, Staphylococcus aureus; details: ATCC-BAA-1750; read-out: MIC
Outline: as §1

[4] = tested on: Mupirocin-susceptible MRSA ATCC-33592 (ST239); type: cell-based, Staphylococcus aureus; details: ATCC-33592; read-out: MIC
Outline: as §1

[5] = tested on: Mupirocin-susceptible MRSA ATCC-700699 (VISA); type: cell-based, Staphylococcus aureus; details: ATCC-700699; read-out: MIC
Outline: as §1

[6] = tested on: Mupirocin-susceptible MRSA ATCC-BAA-1681 (USA100); type: cell-based, Staphylococcus aureus; details: ATCC-BAA-1681; read-out: MIC
Outline: as §1

[7] = tested on: Mupirocin-susceptible MRSA ATCC-BAA-1707 (USA400); type: cell-based, Staphylococcus aureus; details: ATCC-BAA-1707; read-out: MIC
Outline: as §1

[8] = tested on: Mupirocin-susceptible MRSA ATCC-BAA-1754 (ST45); type: cell-based, Staphylococcus aureus; details: ATCC-BAA-1754; read-out: MIC
Outline: as §1

[9] = tested on: Mupirocin-susceptible MRSA ATCC-BAA-1756 (USA300); type: cell-based, Staphylococcus aureus; details: ATCC-BAA-1756; read-out: MIC
Outline: as §1

[10] = tested on: Mupirocin-susceptible MRSA ATCC-BAA-2762 (EMRSA15, ST22); type: cell-based, Staphylococcus aureus; details: ATCC-BAA-2762; read-out: MIC
Outline: as §1

[11] = tested on: Enterococcus faecalis ATCC 51299; type: cell-based; details: ATCC 51299
Procedure: (§2) The antibacterial potency of Compound 34 was measured using the in vitro broth microdilution assay under assay conditions described by the Clinical and Laboratory Standards Institute. […] The test substance was dissolved in 100% DMSO (unless stated below), suspended completely by sonication or vortexing, diluted by 2-fold serial titrations in the same vehicle, for a total of 10 test concentrations (final concentrations: 100, 50, 25, 12.5, 6.25, 3.125, 1.56, 0.78, 0.39, 0.2 μM). A 4 μL aliquot of each dilution was added to 196 μL of broth medium seeded with the organism suspension in wells of a 96 well plate (bacterial count: 2-8×10^5 colony forming units/mL final). The final volume was 200 μL in each well and the final DMSO concentration was 2 percent. The incubation time is either 1 or 2 days at 36° C. All strains tested underwent aerobic respiration, except for ATCC BAA-1805 and ATCC 29399. Following incubation, the test plates were visually examined and wells were scored for growth or complete growth inhibition to define the minimum inhibitory concentration. Each test substance was evaluated in duplicate and the results below are the duplicate test values. Vehicle-control and an active reference agent were used as blank and positive controls, respectively.

[12] = tested on: Enterococcus faecium ATCC BAA-2320; type: cell-based; details: ATCC BAA-2320
Procedure: as §2

[13] = tested on: Propionibacterium acnes ATCC 29399; type: cell-based; details: ATCC 29399
Procedure: as §2

For `N=C(N)NCCC[C@@H](NC(=O)[C@@H](Cc1ccc(-c2ccc(Cl)cc2)cc1)NC(=O)[C@@H](CCCNC(=N)N)NC(=O)[C@H](N)Cc1ccc(-c2ccc(Cl)cc2)cc1)C(N)=O` [Compound 34] (H-[dBip(4'-Cl)][dR][dBip(4'-Cl)][dR]-NH2), the MIC ([1]; Mupirocin-resistant MRSA ATCC-BAA-1556, cation-adjusted MH2 broth, overnight 35° C., OD600, read-out: MIC) was 3.125 µM (≈ 2.64 µg/mL), the “improvement of bioactivity (lower MIC values) as compared to Compound 2” value ([1]; against Mupirocin-resistant MRSA strains) was “about 4 fold” and the MIC [2] was 1.56 µM (≈ 1.32 µg/mL). It also gave an MIC [3] of 1.56 µM (≈ 1.32 µg/mL), an MIC [4] of 3.125 µM (≈ 2.64 µg/mL) and an MIC [5] of 3.125 µM (≈ 2.64 µg/mL). The MIC [6] was 3.125 µM (≈ 2.64 µg/mL), the MIC [7] was 3.125 µM (≈ 2.64 µg/mL) and the MIC [8] was 3.125 µM (≈ 2.64 µg/mL). It also gave an MIC [9] of 1.56 µM (≈ 1.32 µg/mL), an MIC [10] of 3.125 µM (≈ 2.64 µg/mL) and an MIC [11] of 3.13 µM (≈ 2.64 µg/mL). The MIC [12] was 1.56 µM (≈ 1.32 µg/mL) and the MIC [13] was 1.56 µM (≈ 1.32 µg/mL).
